In ChEMBL document CHEMBL4033732, “Identification and synthesis of novel inhibitors of mycobacterium ATP synthase” (Bioorg Med Chem Lett, 2017):

Biological target: not listed separately
Test: Inhibition of ATP synathse in Mycobacterium smegmatis str. MC2 155 inverted membrane vesicles assessed as ATP formation pre-incubated for 30 mins before NADH-ADP-phosphate buffer cocktail addition and measured after 60 mins by kinase glow reagent based assay
Set-up: species or system Mycolicibacterium smegmatis MC2 155
Settings: not given

With O=C(c1cc2n(n1)CCN(Cc1ccc(Cl)c(Cl)c1)C2=O)N1CCC(c2ccccc2)CC1 as the compound, how does the IC50 read?
Its IC50 is > 10 µM.

With O=C(c1cc2n(n1)CCN(Cc1ccc(Cl)c(Cl)c1)C2=O)N1CCNCC1 as the compound, how does the IC50 read?
Its IC50 is > 10 µM.

For O=C(c1cc2n(n1)CCN(Cc1ccccc1Cl)C2=O)N1CCCCC1, which IC50 is on record?
Its IC50 is > 10 µM.

With CC(=O)N1CCN(C(=O)c2cc3n(n2)CCN(Cc2ccc(Cl)c(Cl)c2)C3=O)CC1 as the compound, how does the IC50 read?
The IC50 was > 10 µM.

Which IC50 does the source give for COc1nc2ccc(Br)cc2cc1C(c1ccccc1)C(O)(CCN(C)C)c1cccc2ccccc12 (racemic) here?
Its IC50 is 0.02 µM.

For CN(C)CCOc1ccc(NC(=O)c2cc3n(n2)CCN(Cc2ccc(Cl)c(Cl)c2)C3=O)cc1, which IC50 is on record?
Its IC50 is > 10 µM.

With CC(C)(C)OC(=O)N1CCN(C(=O)c2cc3n(n2)CCN(Cc2ccc(Cl)c(Cl)c2)C3=O)CC1 as the compound, how does the IC50 read?
The IC50 was > 10 µM.

With CN1CCn2nc(C(=O)N3CCCCC3)cc2C1=O as the compound, how does the IC50 read?
Its IC50 is > 10 µM.

With CC(c1ccc(Cl)c(Cl)c1)N1CCn2nc(C(=O)N3CCCCC3)cc2C1=O (racemic) as the compound, how does the IC50 read?
Its IC50 is > 10 µM.

For CN1CCN(C(=O)c2cc3n(n2)CCN(Cc2ccc(Cl)c(Cl)c2)C3=O)CC1, which IC50 is on record?
The IC50 was > 10 µM.

For O=C(c1cc2n(n1)CCN(c1ccc(Cl)c(Cl)c1)C2=O)N1CCCCC1, which IC50 is on record?
Its IC50 is > 10 µM.

Which IC50 does the source give for CN(C)C(=O)c1cc2n(n1)CCN(Cc1ccc(Cl)c(Cl)c1)C2=O here?
Its IC50 is > 10 µM.

For O=C(c1cc2n(n1)CCN(Cc1ccccc1)C2=O)N1CCCCC1, which IC50 is on record?
The IC50 was > 10 µM.

With O=C(c1cc2n(n1)CCN(CC1CCCCC1)C2=O)N1CCCCC1 as the compound, how does the IC50 read?
The IC50 was > 10 µM.

Which IC50 does the source give for O=C(c1cc2n(n1)CCN(Cc1ccc(Cl)c(Cl)c1)C2=O)N1CCCC1 here?
The IC50 was > 10 µM.

Tested on: Mycobacterium tuberculosis
Test: Antimicrobial activity against Mycobacterium tuberculosis H37Rv assessed as reduction in microbial growth incubated for 5 days by CLSI protocol based assay
Format: functional
Settings: 120 h

Which MIC does the source give for O=C(c1cc2n(n1)CCN(Cc1ccc(Cl)c(Cl)c1)C2=O)N1CCC(c2ccccc2)CC1 here?
The MIC was > 32 µg/mL.

Which MIC does the source give for O=C(c1cc2n(n1)CCN(Cc1ccc(Cl)c(Cl)c1)C2=O)N1CCNCC1 here?
The MIC was > 32 µg/mL.

Which MIC does the source give for O=C(c1cc2n(n1)CCN(Cc1ccccc1Cl)C2=O)N1CCCCC1 here?
The MIC was > 32 µg/mL.

Which MIC does the source give for CC(=O)N1CCN(C(=O)c2cc3n(n2)CCN(Cc2ccc(Cl)c(Cl)c2)C3=O)CC1 here?
The MIC was > 32 µg/mL.

With COc1nc2ccc(Br)cc2cc1C(c1ccccc1)C(O)(CCN(C)C)c1cccc2ccccc12 (racemic) as the compound, how does the MIC read?
Its MIC is 0.25 µg/mL.

For CN(C)CCOc1ccc(NC(=O)c2cc3n(n2)CCN(Cc2ccc(Cl)c(Cl)c2)C3=O)cc1, which MIC is on record?
The MIC was > 32 µg/mL.

Which MIC does the source give for CC(C)(C)OC(=O)N1CCN(C(=O)c2cc3n(n2)CCN(Cc2ccc(Cl)c(Cl)c2)C3=O)CC1 here?
Its MIC is > 32 µg/mL.

With CN1CCn2nc(C(=O)N3CCCCC3)cc2C1=O as the compound, how does the MIC read?
The MIC was > 32 µg/mL.

For CC(c1ccc(Cl)c(Cl)c1)N1CCn2nc(C(=O)N3CCCCC3)cc2C1=O (racemic), which MIC is on record?
Its MIC is > 32 µg/mL.

For CN1CCN(C(=O)c2cc3n(n2)CCN(Cc2ccc(Cl)c(Cl)c2)C3=O)CC1, which MIC is on record?
The MIC was > 32 µg/mL.

Which MIC does the source give for O=C(c1cc2n(n1)CCN(c1ccc(Cl)c(Cl)c1)C2=O)N1CCCCC1 here?
The MIC was > 32 µg/mL.

For CN(C)C(=O)c1cc2n(n1)CCN(Cc1ccc(Cl)c(Cl)c1)C2=O, which MIC is on record?
The MIC was > 32 µg/mL.

Which MIC does the source give for O=C(c1cc2n(n1)CCN(Cc1ccccc1)C2=O)N1CCCCC1 here?
Its MIC is > 32 µg/mL.

For O=C(c1cc2n(n1)CCN(CC1CCCCC1)C2=O)N1CCCCC1, which MIC is on record?
The MIC was > 32 µg/mL.

For O=C(c1cc2n(n1)CCN(Cc1ccc(Cl)c(Cl)c1)C2=O)N1CCCC1, which MIC is on record?
Its MIC is > 32 µg/mL.
